From patent US20120114714A1, “METHOD FOR THE TREATMENT AND PREVENTION OF ERECTILE DYSFUNCTION” (priority 2006, published 2012)

How the values were obtained:
diabetes-induced rats = test: Internal pressure of penile corpus cavernosum after electrostimulation in STZ diabetes-induced rats; assay type: in vivo, Sprague-Dawley white rats; conditions: oral for 5 weeks, AICAR 500 mg/kg, compound 1 250 mg/kg, FIG. 7
Text: In order to confirm in vivo whether penile erection of a diabetes-induced rat has an influence on the internal pressure of the penile corpus cavernosum, 23 Sprague-Dawley white rats (about 300 g) are divided into a normal control group (Group I, n=6), a diabetes-induced control group (Group II, n=4), a group with administration of AICAR following the diabetes-induction (Group III, n=6), and a group with administration of the compound 1 (Group IV, n=7).
STZ (streptozotocin) was used to induce diabetes, and the AICAR and the compound 1 were orally administered in dosages of 500 mg/kg and 250 mg/kg, respectively, for 5 weeks. Each of the experimental groups was systemically anesthetized, intubated into one-side of the carotid in order to measure blood pressure, a electrostimulation-purpose catheter was set in the penile corpus cavernosum nerves in the cavum pelvis, and the internal pressure of the penile corpus cavernosum was measured. Electrostimulation was applied to the group for one minute (frequency: 10 Hz, delay: 4 ms, duration: 5 ms, volt: 3V). An increase in internal pressure of the groups was measured, and the groups were compared with one another in view of the increase in internal pressure.

[1] = tested on: penile corpus cavernosum smooth muscles; test: Relaxation of phenylephrine-contracted penile corpus cavernosum smooth muscle sections in organ bath; design: species or system New Zealand white rabbit; conditions: for Relaxation (%): conc. 10^−4 M, section contracted with 10^−4 M phenylephrine
Text: A New Zealand white rabbit (2.5 to 3.0 kg) was anesthetized and the overall penis was then dissected from the rabbit. The penile corpus cavernosum smooth muscles were separated from the tunica albuginea in a low-temperature Tyrode's solution aerated with a 95% O2-5% CO2 gas mixture, while observing with a dissection microscope, to prepare a penis section. The penis section was fixed in an organ bath (10 cc) containing a Tyrode's solution. At this time, the one end of the penis section was fixed on the bottom of the organ bath, and a variation in isometric tension of the penile corpus cavernosum smooth muscles was then measured with a force displacement transducer at the other end thereof. After reaching an equilibrium state, the penile section was contracted by treatment of 10^−4 M phenylephrine.
According to the drug used to treat the penile section, the experimental groups used herein were divided into six groups, i.e., i) a group with administration of SNP as a NO donor, ii) a group with administration of Zaprinast as an inhibitor against PDE-5, an enzyme that mediates hydrolysis of c-GMP, a group with administration of acetylcholine that acts on the nervous system, iv) a group with administration of metformin, one of conventional AMPK activators, v) a group with administration of AICAR (5-aminoimidazole-4-carboxamide-1-beta-D-ribofuranoside), and vi) a group with administration of the compound 1 according to the present invention. These groups were compared with one another, in view of relaxation (%) of the penile corpus cavernosum.

[2] = tested on: penile corpus cavernosum smooth muscles; test: Compound 1-induced relaxation upon blocking of the NO pathway (L-NAME, methylene blue); design: species or system New Zealand white rabbit; conditions: FIG. 4
Text: To confirm the effects of the compound 1 on relaxation of the penile corpus cavernosum smooth muscles upon blocking of a NO pathway, the penile corpus cavernosum smooth muscle sections were contracted by the treatment of phenylephrine, relaxed by the treatment of the compound 1, and then sequentially treated with methylene blue as an inhibitor against guanylate cyclase that helps production of c-GMP and with L-NAME (L-nitroarginine methyl ester) that inhibits production of NO via inhibitory activity against eNOS.

[3] = tested on: penile corpus cavernosum smooth muscles; test: Compound 1-induced relaxation after endothelium removal (CHAPS) and HO-2 inactivation (ZnPP); design: species or system New Zealand white rabbits
Text: To ascertain the pharmacological mechanism the compound 1 acts on the relaxation of the penile corpus cavernosum smooth muscles in the New Zealand white rabbits, the smooth muscle sections were relaxed by the treatment of the compound 1 and endothelial cells were then removed from the smooth muscle sections using 10^−4 M of CHAPS (3-[(3-cholamidopropyl) dimethylammonio]-1-propanesulfonate, 0.3% in buffer solution; Sigma) as a lysis buffer. Subsequently, as another neurotransmitter, zinc-protoporphyrin-IX (ZnPP) was administrated thereto, which inactivates heme oxygenase-2 (HO-2) that produces carbon monoxide (CO) that is in vivo produced by blood and acts as a vasodilator.

[4] = tested on: endothelial nitric oxide synthase (eNOS); test: Phosphorylation of eNOS in HUVEC cells (anti-pS1177 eNOS); assay type: cell-based; conditions: compound 1 10 uM, FIG. 3
Procedure: In order to ascertain whether the compound 1 acting as an AMPK activator is implicated in the production of NO, phosphorylation to promote the activity of endothelial nitric oxide synthase (eNOS) was measured. So as to confirm the phosphorylation of eNOS through the compound 1, HUVEC cells were seeded on a 60 mm plate at 1×10^5 in an EBM2/5% FBS medium and cultured for 24 hours. The medium was replaced by a serum-free EBM2 medium and the treatment with the compound 1 (10 uM) was performed for a predetermined period. An anti-pS1177 eNOS was used to measure the phosphorylated eNOS.

[5] = molecular target: Phosphodiesterase type 5 (PDE 5) (Homo sapiens, UniProt O76074); conditions: cited from earlier work

NC(=O)c1ncn([C@@H]2O[C@H](CO)[C@@H](O)[C@H]2O)c1N [AICAR, 5-aminoimidazole-4-carboxamide-1-beta-D-ribofuranoside, reference compound]
average of the highest internal pressure increase of the penile corpus cavernosum after electrostimulation (diabetes-induced rats): 4.3±1.0 mmHg | Relaxation (%) [1]: 10%

CC(=O)OCC[N+](C)(C)C [Acetylcholine, acetylcholine]
Relaxation (%) [1]: 21%

CC1(C)CCC2=C(O1)c1ccccc1C(=O)C2=O [Compound 1, β-lapachone]
relaxation caused by the compound 1 after L-NAME and methylene blue ([2]; 10^−3 M of L-NAME and 10^−3 M of methylene blue): partially inhibited | inhibition of relaxation by methylene blue compared to the L-NAME-treatment group ([2]; methylene blue 10^−4 M): more greatly inhibited | average of the highest internal pressure increase of the penile corpus cavernosum after electrostimulation (diabetes-induced rats): 9.7±5.1 mmHg | relaxation of the CHAPS-administration group (no Znpp) relative to relaxation of the compound 1-administration group ([3]; 10^−4 M CHAPS, endothelial cells removed): about 45% | relaxation of the ZnPP-administration group ([3]; CHAPS plus zinc-protoporphyrin-IX (ZnPP), FIGS. 5 and 6): almost completely inhibited | phosphorylation of eNOS (p-eNOS) at 2 hours ([4]; 2 hours): not observed | time at which phosphorylation of eNOS (p-eNOS) is maximized [4]: 30 min | Relaxation (%) [1]: 92% | relaxation effects of penile corpus cavernosum smooth muscles (FIG. 2) ([1]; concentration range of 10^−9 to 10^−7 M): about double that of the SNP-administration group

CN(C)C(=N)N=C(N)N [Metformin, metformin]
Relaxation (%) [1]: 0.1%

CCCc1nn(C)c2c(=O)[nH]c(-c3cc(S(=O)(=O)N4CCN(C)CC4)ccc3OCC)nc12 [Viagra]
selectivity of PDE 5 inhibition [5]: ≥ 4,000 folds

CCCOc1ccccc1-c1nc2nn[nH]c2c(=O)[nH]1 [Zaprinast]
Relaxation (%) [1]: 36%
